Experimental findings from US20250269046A1, “CELLULAR UPTAKE OF LARGE BIOMOLECULES ENABLED BY CELL-SURFACE-REACTIVE CELL-PENETRATING PEPTIDE ADDITIVES” (FORSCHUNGSVERBUND BERLIN E.V., priority 2021, published 2025) are described below.

Common to all, as to format: cell-based
The subject of data set [1] is accessible cell-surface thiols. Kind of data set: Fluorescent labelling of accessible cell-surface thiols. The following applies: 50 μM for 10 minutes, then 10 μM atto 488 maleimide. The source says:
Next, the inventors wanted to explore other cysteine-selective reactions in this context. […] The inventors first wanted to confirm that there are addressable, surface-exposed thiols on cells. To that end, the inventors labelled cells with a cell-impermeable, maleimide-functionalized fluorophore (FIG. 20).

For data set [2], the system named is cells. Put plainly: Uptake of NLS-mCherry-R10 II with additional CPP in presence of serum. The following applies: for co-delivery efficiency in presence of serum: 37° C. How it is done: Scale bars 20 μm. b, Quantification of relative nuclear fluorescence intensities from microscopy pictures. n.s.=not significant, ***=P<0.0005.
Methods of cargo delivery that rely on endosomal escape are often susceptible to the presence of serum, as they require effective endocytosis of both the cargo and the endosomolytic agent (Erazo-Oliveras, A. et al. Protein delivery into live cells by incubation with an endosomolytic agent. Nat Methods 11, 861-867, doi:10.1038/nmeth.2998 (2014)). The inventors hypothesized that peptide 5 would likely react with thiols in the serum, but the co-delivery with 2 (Cys-R10) should still function. […] Reduction in efficiency in presence of large amounts of serum may be due to the thiols in serum or the unspecific binding of CPPs to serum proteins (Lattig-Tunnemann, G. et al. Backbone rigidity and static presentation of guanidinium groups increases cellular uptake of arginine-rich cell-penetrating peptides. Nat Commun 2, 453, doi:10.1038/ncomms1459 (2011)).

Data set [3] has as its system HeLa Kyoto cells. Put plainly: Quantitative microscopy of nuclear mCherry fluorescence after co-delivery with R10-peptides. The following applies: 5 μM mCherry-R10 conjugate II with additive. As to the method: To further evaluate the high efficiency of the CPP-peptide additives 1 and 2 in the additive protocol and to probe the impact of the N-terminal thiol functionality, the inventors synthesized additional linear CPPs 3-5 with different thiol derivatives (FIG. 2a). We then co-delivered 5 μM of CPP-conjugates of mCherry either linked to a linear (11) or cyclic R10 (1) (as above in FIG. 1 d-e) together with the newly synthesized peptides 1-5 into HeLa Kyoto cells and used microscopy to measure both nuclear and total fluorescence (representative pictures for all tested conditions in FIG. 12). Thereby, the inventors quantified the desirable delivery to the nucleus and nucleoli (FIG. 2a), and also the amount of unwanted endosomal entrapment (FIG. 13, see example 6 with supporting methods and general methods for details).
Cell culturing is described in the supplementary methods, along with a list of cell lines used in this study. For microscopy experiments, 20′000 cells (10′000 in the case of the GFP-PCNA HeLa Kyoto cell line^7) were seeded into the wells of a 96-well glass bottom plate. The cells were left to adhere and grow for 24 hours at 37° C. with 5% CO2. For 37° C. experiments, the cells were washed once with DMEM before addition of the protein samples in DMEM. The cells were incubated for 1 hour at 37° C. The cells were then washed three times with DMEM with 10% fetal bovine serum (FBS). […] For the quantitative microscopy experiments, the cells were fixed using 4% PFA in PBS for 30 minutes at room temperature after washing.
Quantification of cellular uptake was done using a script for FIJI, see section “Quantification Script”. […] The red fluorescence channel was background subtracted and the red fluorescence within the nuclear mask and outside of it was quantified. Nuclear fluorescence was either normalized to the nuclear area (absolute fluorescence graph in FIG. 2) or to the sum of nuclear and outside fluorescence (relative fluorescence graph in SI FIG. 6). Pearson's correlation coefficient was calculated using the Coloc2 tool in Fiji.

In data set [4] the test system is HeLa CCL-2 cells. Put plainly: Cre Stoplight 2.4 reporter, delivery of Cre-exR8, flow cytometry and microscopy. The source says: To challenge the delivery protocol, the inventors expressed and purified Cre recombinase fused to a C-terminal R8 peptide (Cre-exR8, characterization in FIG. 39). Fusions of Cre recombinase with the arginine-rich HIV TAT peptide have been previously reported to aid in cell uptake (Peitz, M., Pfannkuche, K., Rajewsky, K. & Edenhofer, F. Ability of the hydrophobic FGF and basic TAT peptides to promote cellular uptake of recombinant Cre recombinase: a tool for efficient genetic engineering of mammalian genomes. Proc Natl Acad Sci USA 99, 4489-4494, doi:10.1073/pnas.032068699 (2002)).
For the Cre recombinase experiments, 200′000 cells were seeded in each well of a 12-well plate. The cells were incubated for 24 hours at 37° C. to settle, then transfected with the reporter plasmid (Cre Stoplight 2.4) using Lipofectamine 2000. The cells were incubated for another 24 hours, then treated with Cre recombinase (or medium) in DMEM with 5% FCS and incubated for 24 more hours. Microscopy pictures were then taken, and the cells were detached with accutase, dead cells stained with DAPI and all cells measured on a LSRFortessa (BD Biosciences, USA) flow cytometer. […] At least 10′000 cells were counted for each condition. The gating strategy is illustrated in FIG. 41.
(A flow cytometer gives signals particle by particle.)

In data set [5] the test system is cells. Put plainly: Uptake of NLS-mCherry-R10 and Alexa647-Transferrin with endocytosis inhibitors. The following applies: NLS-mCherry-R10 II 5 μM, additive 5 μM, 37° C.; sodium azide, dynasore, pitstop 2.
Method: NLS-mCherry-R10 II at a 5 μM concentration was added to cells in combination with 25 μg/mL Alexa647-Transferrin (Invitrogen) as endocytosis control. Where indicated, 5 μM of the Cys-R10 peptide 2 were added to induce nucleolar delivery of the mCherry.
For data set [6], the system named is HeLa Kyoto cells. Kind of data set: Cellular uptake of CPP-bearing cargoes with or without unbound CPP additive, confocal microscopy.
From the text: To evaluate the concentration, temperature and cargo-size dependency of added arginine-rich peptides to mediate cytosolic delivery, the inventors chose three distinct cargoes to transport: the organic fluorophore Tetramethylrhodamine (TAMRA, ˜450 Da), the camelid-derived anti-GFP nanobody GBP1 (˜14 kDa) and the fluorescent protein mCherry with a nuclear localization signal (NLS-mCherry, ˜28 kDa). […] We then applied all of the synthesized cargoes to HeLa Kyoto cells (expressing nuclear GFP-PCNA (Leonhardt, H. et al. Dynamics of DNA replication factories in living cells. J Cell Biol 149, 271-280, doi:10.1083/jcb.149.2.271 (2000). Chagin, V. O. et al. 4D Visualization of replication foci in mammalian cells corresponding to individual replicons. Nat Commun 7, 11231, doi:10.1038/ncomms11231 (2016)) as antigen for the nanobody), at both 37 and 4° C.
For microscopy experiments, 20′000 cells (10′000 in the case of the GFP-PCNA HeLa Kyoto cell line^7) were seeded into the wells of a 96-well glass bottom plate. The cells were left to adhere and grow for 24 hours at 37° C. with 5% CO2. For 37° C. experiments, the cells were washed once with DMEM before addition of the protein samples in DMEM. The cells were incubated for 1 hour at 37° C. The cells were then washed three times with DMEM with 10% fetal bovine serum (FBS). Cells were generally imaged live with incubation at 37° C. and 5% CO2. For the quantitative microscopy experiments, the cells were fixed using 4% PFA in PBS for 30 minutes at room temperature after washing.
For 4° C. experiments, the cells were pre-chilled at 4° C. for 1 hour. The cells were then washed with cold DMEM and the proteins were added in cold DMEM to the cells. The cells were incubated at 4° C. for 1 hour. Afterwards, the cells were washed thrice with cold DMEM with 10% FBS, before fixation with 4% PFA in PBS for 30 minutes at room temperature.
Confocal microscopy images were acquired on a Nikon-CSU spinning disc microscope with an CSU—X1 (Andor) and a live cell incubation chamber (OKOlab).
In data set [7] the test system is HeLa Kyoto cells transfected with EGFP-transmembrane-Halotag plasmid. Kind of data set: Halotag-tethering of CPP and delivery of NLS-mCherry-cR10 I. The following applies: 5 μM NLS-mCherry-cR10 I, 20 μM Halo-R10, 1 hour 37° C. As to the method:
The arrowheads indicate nucleation zones stained by both peptides. b, Time-lapse of the co-delivery of NLS-mCherry-R10 II together with the Maleimide-R10-Cy5 peptide 13 on HeLa Kyoto cells in cell medium. The arrowheads indicate nucleation zones and blue arrowheads the appearance of nucleolar staining of the mCherry. c, Cellular uptake of NLS-mCherry-cR10 I in presence of chloroalkane-modified “Halo-R10” 17 on HeLa Kyoto cells transfected with EGFP-transmembrane-Halotag plasmid, 1 hour at 37° C. in cell medium. SP: Signal peptide, TM: transmembrane sequence. […] Uptake experiments with peptides 16 and 18-20 in FIG. 26. Scale bars 20 μm.
Transfected cells were treated with 1 μM JF646-Halotag-Iigand (Promega). […] The arrowheads show nucleoli with mCherry fluorescence. See also main text FIG. 3. Scale bars 20 μm.
To elaborate this further, the inventors generated a plasmid that would lead to expression of an EGFP reporter inside transfected cells along with a Halotag (England, C. G., Luo, H. & Cai, W. HaloTag technology: a versatile platform for biomedical applications. Bioconjug Chem 26, 975-986, doi:10.1021/acs.bioconjchem.5b00191 (2015)) on the cell surface (simplified plasmid map in FIG. 3c, validation of the plasmid and additional controls in FIG. 28). […]

Data set [8] relates to cells. Kind of data set: Cellular uptake of mCherry variants (K10, exR10, R5, R8) with or without TNB-R10 5. The source says: Most of our findings point to an energy-independent mode of uptake, but to probe whether TNB-R10 5 can also lead to endosomal leakage of an entrapped cargo, the inventors used peptide 5 on cells in combination with an mCherry variant (NLS-mCherry-K10 Ilil) that had been modified with a K10 peptide (via maleimide chemistry, see FIG. 8).
The inventors also tested if recombinantly expressed CPP-fusion proteins can be delivered, as these require much less equipment and effort to produce.
In the same vein, the inventors also made mCherry variants modified with R5 and R8 peptides and co-delivered them into cells with TNB-R10 5 (FIGS. 36-37).

For data set [9], the system named is HeLa CLL-2 cells. Put plainly: WST-1 cell viability assay. The following applies: 10 μM. As to the method:
Absorbance at 440 nm is indicative of cellular metabolic activity in the processing of WST-1 to the absorbing Formazan. […] The cells were treated with either 5 μM NLS-mCherry-R10 II in DMEM alone (lower panel) or with 10 μM TNB-R10 5 in DMEM (upper panel). After one-hour incubation, cells were washed again in DMEM and treated with 5 μM Calcein AM in DMEM. The morphology of the cells as shown in the differential interference contrast (DIC) images is also unaffected. Scale bars 50 μm. c, Co-delivery of NLS-mCherry-R10 II in presence of Sytox Blue dead cell stain with or without added TNB-R10 5. Scale bars 20 μm.
On the technique in general: Tetrazolium dyes change colour on reduction, which living cells bring about.

AEEA = NCCOCCOCC(=O)O

Turning to `O=C(O)c1cc(SSc2ccc([N+](=O)[O-])c(C(=O)O)c2)ccc1[N+](=O)[O-]` [Ellman's reagent, 5,5′-dithiobis-(2-nitrobenzoic acid)], in [1], the “labelling of cell-surface thiols by maleimide fluorophore after pre-treatment” value was “Labelling is dramatically reduced”.
As to `N=C(N)NCCC[C@H](NC(=O)[C@H](CCCNC(=N)N)NC(=O)[C@H](CCCNC(=N)N)NC(=O)[C@H](CCCNC(=N)N)NC(=O)[C@H](CCCNC(=N)N)NC(=O)[C@H](CCCNC(=N)N)NC(=O)[C@H](CCCNC(=N)N)NC(=O)[C@H](CCCNC(=N)N)NC(=O)[C@H](CCCNC(=N)N)NC(=O)[C@H](CCCNC(=N)N)NC(=O)COCCOCCNC(=O)COCCOCCNC(=O)[C@@H](N)CS)C(N)=O` [peptide 2], the results for the “co-delivery efficiency in presence of serum” value in [2] (5% serum or lower) and in data set [2] (10% serum) were “negligible effect on uptake” and “reduced efficiency”, respectively. Also, the “performance in presence of serum compared with alkylated variant” value in data set [2] (NLS-mCherry-R10 II, serum) is listed as “performed significantly better than the alkylated variant 3”. In [3], the staining after co-delivery result is listed as “nuclear/nucleolar staining”. Further, the “expression of the Cre reporter” value in [4] (1 μM Cre-exR8 with 10 μM peptide vs alone, 5% serum) was “strong increase in expression of the Cre reporter”. The “red fluorescence, epifluorescence microscopy” value in [4] (Cre-exR8 in presence of additional peptide) is “higher incidence of red fluorescence”. For the same molecule, the “nucleolar mCherry in presence of endocytosis inhibitors” value in data set [5] is recorded as “could detect nucleolar mCherry regardless of the inhibitor used”. The “cells with nucleolar red fluorescence” value in data set [6] (5 μM NLS-mCherry-R10 II with the CPP-additive) was “more than 90%”. In addition, in data set [6] (5 μM additive, 5 μM NLS-mCherry-R10), the “nucleolar delivery of NLS-mCherry linked to linear R10 with linear CPP-additive” value is “efficient nucleolar delivery”.
With “6-chlorohexanoic acid-PEG*-RRRRRRRRRR-Amide ({6‑chlorohexanoyl-AEEA-AEEA}-RRRRRRRRRR-NH2) [compound 17]”, in data set [7], the “nucleolar mCherry staining in transfected cells” value was “mCherry in the nucleoli of EGFP-positive cells”.
In the case of “NLS-mCherry-exR10 IV: recombinantly expressed mCherry with a C-terminal R10 peptide, SEQ ID NO: 3”, the figures for the “uptake of recombinant CPP-fusion protein” value in [8] (5 μM alone) and in [8] (5 μM with addition of peptide 5) were “predominantly endosomal uptake” and “efficiently rescued”, respectively.
As for `CN[C@@H]1C[C@H]2O[C@@](C)([C@@H]1OC)n1c3ccccc3c3c4c(c5c6ccccc6n2c5c31)C(=O)NC4` [staurosporine], in data set [9], the “effect on cellular metabolic activity (positive control)” value is reported as “significant, detrimental effect”.
